Measurements taken from patent US9682960B2 (priority 2013, dated 2017).
Several values for one entry are separate records, joined by “and”; a condition that tells them apart may be missing. Equal values may be shown once. Read-outs that look alike come from different tables or passages of the source.

Tests used:
[1] = test system: Shionogi mouse mammary carcinoma cells; assay: In vitro androgenic/antiandrogenic activity: proliferation of Shionogi cells with or without DHT; type: cell-based; details: for stimulation at 10^−7M on basal Shionogi cell proliferation (in words): basal (no DHT)
Human Androgen Receptor = Human Androgen Receptor (Homo sapiens (Human), UniProt P10275); assay: Androgen receptor assay: [3H]R1881 displacement, cytosol of HEK-293 cells transfected with hAR (hydroxylapatite assay); type: binding
[2] = test system: castrated (CX) immature male rats; assay: Systemic androgenic (agonistic) activity in orchidectomized (CX) immature male rats; type: in vivo, rat; details: 0.1 mg/rat/po, 7 days; for CX Agonistic activity % Stimulation Bulbo: bulbocavernosus muscles weight; for CX Agonistic activity % Stimulation SV: seminal vesicles weight; for CX Agonistic activity % Stimulation Prostate: ventral prostate weight
Method: Immature male rats (Crl:CD(SD)Br) 22 to 24-day old weighting 60-80 g at start of treatment were obtained from Charles-River, Inc. (St-Constant, Quebec, Canada) and housed up to 5 per cage in plastic bins in a temperature (23±1° C.)- and light (12 h light/day, lights on at 7 h15)-controlled environment. The rats were fed rodent chow and tap water ad libitum. […] The day following their arrival, the designed animals were orchidectomized (CX) under Isoflurane anesthesia (Study Day 1) via the scrotal route and were then randomly assigned to groups of 3 to 5 animals. At the time of orchidectomy, one silastic implant of dihydrotestosterone (DHT; 1 cm length of pure DHT in silastic tubing having inner and outer diameter of 0.078 and 0.125 inches, respectively), was inserted subcutaneously in the dorsal area of animals assigned to the evaluation of antiandrogenic activity. In the case of intact animal experiments, the orchidectomy and the silastic implant installation are omitted.
Tested compounds were administered orally once daily for 7 days from Study Day 2 to Study Day 8 at doses generally ranging from 0.1 and 0.5 mg/animal. Compounds were either solubilized in dimethylsulfoxide (DMSO, 10% final concentration) and were administered as a solution/suspension in 0.9% NaCl-1% gelatin or were administered as suspensions in 0.4% aqueous methylcellulose. Animals of the control groups received the corresponding vehicle alone during the 7-day period. Some animals were treated with the antiandrogen Flutamide or Casodex as reference. The animals under isoflurane anesthesia were killed by cervical dislocation on day 9 of the study, approximately 24 h after the last dosing. The ventral prostate, seminal vesicles and bulbocavernosus muscles were rapidly dissected and weighed.
For calculations with intact animals, control DHT is replaced by control intact and the % stimulation is subtracted by 100%. W is the weight of the prostate, seminal vesicles or bulbocavernosus muscles. Discussion

[3] = relative binding affinity, R1881 = 100, transfected cells
[4] = Mus musculus, read-out: Shionogi Antiandrogenic Activity IC50, DHT (0.3 nM)-stimulated cell number
[5] = relative binding affinity, R1881 = 100, […]
[6] = read-out: Shionogi Antiandrogenic Activity IC50, DHT (0.3 nM)-stimulated cell number

Human Androgen Receptor, sequence (P10275 whole entry): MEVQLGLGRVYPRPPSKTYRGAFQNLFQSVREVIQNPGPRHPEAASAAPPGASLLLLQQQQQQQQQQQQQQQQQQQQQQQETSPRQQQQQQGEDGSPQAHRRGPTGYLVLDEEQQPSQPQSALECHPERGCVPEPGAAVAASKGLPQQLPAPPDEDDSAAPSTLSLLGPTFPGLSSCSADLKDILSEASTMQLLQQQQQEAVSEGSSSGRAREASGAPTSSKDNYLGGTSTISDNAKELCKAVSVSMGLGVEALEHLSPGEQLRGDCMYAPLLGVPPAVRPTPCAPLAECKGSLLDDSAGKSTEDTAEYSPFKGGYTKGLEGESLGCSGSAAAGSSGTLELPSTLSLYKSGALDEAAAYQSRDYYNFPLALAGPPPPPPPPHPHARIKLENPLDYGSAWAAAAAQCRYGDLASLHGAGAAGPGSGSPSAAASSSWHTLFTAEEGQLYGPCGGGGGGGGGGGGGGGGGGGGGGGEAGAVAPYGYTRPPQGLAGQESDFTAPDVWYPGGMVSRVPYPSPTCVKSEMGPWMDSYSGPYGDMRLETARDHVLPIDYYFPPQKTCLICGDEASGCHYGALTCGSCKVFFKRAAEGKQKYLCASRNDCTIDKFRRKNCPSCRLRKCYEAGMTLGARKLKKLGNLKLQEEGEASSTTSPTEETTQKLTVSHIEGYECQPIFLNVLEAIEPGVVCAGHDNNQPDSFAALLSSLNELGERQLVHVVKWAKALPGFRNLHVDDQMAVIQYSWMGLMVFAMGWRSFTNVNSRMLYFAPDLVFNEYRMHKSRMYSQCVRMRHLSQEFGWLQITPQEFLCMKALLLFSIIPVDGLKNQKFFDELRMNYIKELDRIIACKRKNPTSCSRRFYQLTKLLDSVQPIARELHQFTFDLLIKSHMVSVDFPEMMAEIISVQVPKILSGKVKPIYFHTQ

Row | Compound | Human Androgen Receptor Binding RBA (%) R1881 = 100 (Human Androgen Receptor; [3]) | IC50 [1, 4] | Human Androgen Receptor Binding RBA (%) R1881 = 100 (Human Androgen Receptor; [5]) | further results
1 | CC1(C)C(=O)N(c2ccc(C#N)c(C(F)(F)F)c2)C(=S)N1CCCOc1ccc(CN2CCC(O)C2)cc1 (centres unmarked) [EM-7365, reference compound] | 24% |  |  | IC50 ([1]; DHT (0.3 nM)-stimulated cell number, read-out: Shionogi Antiandrogenic Activity IC50): 0.006 µM
2 | CC1(C)C(=O)N(c2ccc(C#N)c(C(F)(F)F)c2)C(=S)N1CCCOc1ccc(-c2cccnc2)cc1 [EM-8840] |  | 0.024 ± 0.006 µM | 1090 ± 500 (n = 2) % | 
3 | CC1(C)C(=O)N(c2ccc(C#N)c(C(F)(F)F)c2)C(=S)N1CCCOc1ccc(-c2ccncc2)cc1 [EM-8841] |  | 0.073 ± 0.005 µM | 1200 ± 330 (n = 2) % | 
4 | CC1(C)C(=O)N(c2ccc(C#N)c(C(F)(F)F)c2)C(=S)N1CCCOc1ccc(-c2ccncc2)c(F)c1 [EM-8851] | 3310% and 3310 ± 1780 (n = 2) % | 0.077 ± 0.02 µM |  | 
5 | CC1(C)C(=O)N(c2ccc(C#N)c(C(F)(F)F)c2)C(=S)N1CCCOc1cccc(-c2ccncc2)c1 [EM-8871] |  | 0.066 µM | 558 ± 102 (n = 2) % | 
6 | CC1(C)C(=O)N(c2ccc(C#N)c(C(F)(F)F)c2)C(=S)N1CCCOc1ccc(-c2ccncc2)cc1F [EM-8872] |  | 0.036 µM | 723 ± 59 (n = 2) % | 
7 | CC1(C)C(=O)N(c2ccc(C#N)c(C(F)(F)F)c2)C(=S)N1CCCOc1ccc(-c2ccncc2)c(Cl)c1 [EM-8888] | 1880 ± 1040 (n = 2) % |  |  | IC50 ([1]; Mus musculus, DHT (0.3 nM)-stimulated cell number, read-out: Shionogi Antiandrogenic Activity IC50): 0.111 µM
8 | CC1(C)C(=O)N(c2ccc(C#N)c(C(F)(F)F)c2)C(=S)N1CCCOc1ccc(-c2ccncc2)c(C(F)(F)F)c1 [EM-8890] | 59 ± 25 (n = 2) % | 0.0132 µM |  | 
9 | CC1(C)C(=O)N(c2ccc(C#N)c(C(F)(F)F)c2)C(=S)N1CCCOc1ccc(-c2ccncc2)cc1C(F)(F)F [EM-8900] |  | 0.0026 to 0.0043 µM | 130 ± 60 (n = 2) % | stimulation at 10^−7M on basal Shionogi cell proliferation (in words) [1]: none of these compounds has any activity; IC50 [1, 6]: 0.0038 µM
10 | Cc1ccc(-c2ccc(OCCCN3C(=S)N(c4ccc(C#N)c(C(F)(F)F)c4)C(=O)C3(C)C)cc2)cn1 [EM-8908] |  | 0.05 µM | 944 ± 265 (n = 2) % | 
11 | CC1(C)C(=O)N(c2ccc(C#N)c(C(F)(F)F)c2)C(=S)N1CCCOc1ccc(-c2ccnc(F)c2)cc1 [EM-8923] | 136% | 0.048 µM |  | 
12 | CC1(C)C(=O)N(c2ccc(C#N)c(C(F)(F)F)c2)C(=S)N1CCCOc1ccc(-c2cc[n+]([O-])cc2)cc1 [EM-8929] | 100 ± 12 (n = 2) % |  |  | IC50 [1, 6]: 0.017 ± 0.01 µM
13 | CC1(C)C(=O)N(c2ccc(C#N)c(C(F)(F)F)c2)C(=O)N1CCCOc1ccc(-c2cc[n+]([O-])cc2)cc1 [EM-9000] |  | 0.02 ± 0.01 µM | 1.5 ± 0.3 (n = 2) % | 
14 | CC1(C)C(=O)N(c2ccc(C#N)c(F)c2)C(=S)N1CCCOc1ccc(-c2ccncc2)c(F)c1 [EM-9011] | 43 ± 9 (n = 2) % | 0.0066 ± 0.0008 µM |  | 
15 | CC1(C)C(=O)N(c2ccc(C#N)c(F)c2)C(=S)N1CCCOc1ccc(-c2ccncc2)cc1 [EM-9025] | 39% |  |  | stimulation at 10^−7M on basal Shionogi cell proliferation (in words) [1]: none of these compounds has any activity
16 | CC1(C)C(=O)N(c2ccc(C#N)c(Cl)c2)C(=S)N1CCCOc1ccc(-c2ccncc2)c(F)c1 [EM-9037] | 1040 ± 350 (n = 2) % | 0.0087 µM |  | 
17 | CC1(C)C(=O)N(c2ccc(C#N)c(Cl)c2)C(=S)N1CCCOc1ccc(-c2ccncc2)cc1 [EM-9039] |  | 0.0026 to 0.0043 µM | 762 ± 396 (n = 2) % | stimulation at 10^−7M on basal Shionogi cell proliferation (in words) [1]: none of these compounds has any activity; IC50 [1, 6]: 0.0043 µM

Row | Compound | Human Androgen Receptor Binding RBA (%) R1881 = 100 (Human Androgen Receptor; [3]) | IC50 [1, 4] | Human Androgen Receptor Binding RBA (%) R1881 = 100 (Human Androgen Receptor; [5]) | further results
18 | CC1(C)C(=O)N(c2ccc(C#N)c(C(F)(F)F)c2)C(=S)N1CCCOc1ccc(-c2cc[n+]([O-])cc2)cc1.Cl [EM-9043] |  |  | 175% | stimulation at 10^−7M on basal Shionogi cell proliferation (in words) [1]: none of these compounds has any activity; IC50 [1, 6]: 0.0034 µM
19 | CC1(C)C(=O)N(c2ccc(C#N)c(Cl)c2)C(=S)N1CCCOc1ccc(-c2cccnc2)cc1 [EM-9049] |  | 0.0068 µM | 269% | 
20 | CC1(C)C(=O)N(c2ccc(C#N)c(C(F)(F)F)c2)C(=S)N1CCCOc1ccc(-c2ccncc2)cn1 [EM-9050] |  | 0.012 ± 0.002 µM | 317 ± 122 (n = 2) % | 
21 | CC1(C)C(=O)N(c2ccc(C#N)c(C(F)(F)F)c2)C(=O)N1CCCOc1ccc(-c2ccncc2)cc1F [EM-9055] | 7.3% | 0.0106 µM |  | 
22 | CC1(C)C(=O)N(c2ccc(C#N)c(C(F)(F)F)c2)C(=O)N1CCCOc1ccc(-c2ccncc2)c(F)c1 [EM-9066] | 10.3 ± 1.3 (n = 2) % | 0.011 ± 0.004 µM |  | 
23 | CC1(C)C(=O)N(c2ccc(C#N)c(C(F)(F)F)c2)C(=O)N1CCCOc1ccc(-c2cc[n+]([O-])cc2)c(F)c1 [EM-9067] | 2.4% | 0.012 µM |  | 
24 | CC1(C)C(=O)N(c2ccc(C#N)c(C(F)(F)F)c2)C(=S)N1CCCCOc1ccc(-c2cccnc2)cc1 [EM-9070] | 191% | 0.0149 µM |  | 
25 | CC1(C)C(=O)N(c2ccc(C#N)c(C(F)(F)F)c2)C(=O)N1CCCOc1ccc(-c2ccncc2)c(C(F)(F)F)c1 [EM-9089] | 2.0% | 0.049 µM |  | 
26 | Cc1c(N2C(=O)N(CCCOc3ccc(-c4ccncc4)cc3F)C(C)(C)C2=O)ccc(C#N)c1F [EM-9204] | 22% |  |  | 
27 | Cc1c(N2C(=O)N(CCCOc3ccc(-c4cc[n+]([O-])cc4)c(F)c3)C(C)(C)C2=O)ccc(C#N)c1F [EM-9208] | 2.2% |  |  | 
28 | CC1(C)C(=O)N(c2ccc(C#N)c(Cl)c2)C(=O)N1CCCOc1ccc(-c2cc[n+]([O-])cc2)cn1 [EM-9225] |  |  |  | Human Androgen Receptor Binding RBA (%) R1881 = 100 (Human Androgen Receptor): 0.8%
29 | CC1(C)C(=O)N(c2ccc(C#N)c(Cl)c2)C(=O)N1CCCOc1ccc(-c2ccncc2)cc1Cl.Cl [EM-9287] |  |  | 125 ± 9 (n = 3) % | 
30 | CC1(C)C(=O)N(c2ccc(C#N)c(Cl)c2)C(=O)N1CCCOc1ccc(-c2cc[n+]([O-])cc2)cc1Cl.Cl [EM-9288] |  |  | 24 ± 8 (n = 2) % | 
31 | Cc1c(N2C(=O)N(CCCCc3ccc(-c4ccncc4)cc3)C(C)(C)C2=O)ccc(C#N)c1Cl [EM-9336] |  |  | 32.3% | CX Agonistic activity % Stimulation Bulbo [2]: 59%; CX Agonistic activity % Stimulation SV [2]: 8%; CX Agonistic activity % Stimulation Prostate [2]: 27%
32 | Cc1c(N2C(=O)N(CCOc3ccc(-c4ccncc4)cc3)C(C)(C)C2=O)ccc(C#N)c1Cl [EM-9337] |  |  | 28.3% | CX Agonistic activity % Stimulation Bulbo [2]: 95%; CX Agonistic activity % Stimulation SV [2]: 17%; CX Agonistic activity % Stimulation Prostate [2]: 33%
33 | Cc1c(N2C(=O)N(CCOc3ccc(-c4cc[n+]([O-])cc4)cc3)C(C)(C)C2=O)ccc(C#N)c1Cl [EM-9339] |  |  | 4.0% | CX Agonistic activity % Stimulation Bulbo [2]: 68%; CX Agonistic activity % Stimulation SV [2]: 12%; CX Agonistic activity % Stimulation Prostate [2]: 27%
34 | CC(C)(O)C(=O)Nc1ccc([N+](=O)[O-])c(C(F)(F)F)c1 [OH-FLU, hydroxyflutamide, reference compound] | 0.21 ± 0.09 (n = 3) % |  |  | Human Androgen Receptor Binding RBA (%) R1881 = 100 (Human Androgen Receptor; relative binding affinity, R1881 = 100, transfected cells, listed as hydroxyflutamide): 0.21%
